The results in this text go back to patent US10323022B2, “Pyrrolidinyl urea, pyrrolidinyl thiourea and pyrrolidinyl guanidine compounds as TrkA kinase inhibitors” (Array BioPharma Inc., priority 2011, dated 2019).

Each structure is given as a SMILES string. pIC50: −log10 of the molar value. Counter-ions that a name gives are not always drawn.

The target in the experiment is TrkA (Homo sapiens (Human), UniProt P04629). The experiment can be described thus: TrkA Omnia Assay. Format: biochemical. To be noted: averaged IC50; 20 nM enzyme, 500 μM ATP, 10 μM peptide substrate. The method, boiled down: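 Continuous fluorescent kinase read-out (ex 360 nm, em 485 nm) over 70 min, with initial rates fitted to 4- or 5-parameter logistic curves for IC50. Final conditions: 500 μM ATP, 10 μM Omnia Tyr Peptide #4, 20 nM TrkA, MOPS pH 7.5 buffer with MgCl2 and Triton X-100; enzyme and compound preincubated 10 min at ambient temperature.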
Sequence of TrkA (P04629 33-796): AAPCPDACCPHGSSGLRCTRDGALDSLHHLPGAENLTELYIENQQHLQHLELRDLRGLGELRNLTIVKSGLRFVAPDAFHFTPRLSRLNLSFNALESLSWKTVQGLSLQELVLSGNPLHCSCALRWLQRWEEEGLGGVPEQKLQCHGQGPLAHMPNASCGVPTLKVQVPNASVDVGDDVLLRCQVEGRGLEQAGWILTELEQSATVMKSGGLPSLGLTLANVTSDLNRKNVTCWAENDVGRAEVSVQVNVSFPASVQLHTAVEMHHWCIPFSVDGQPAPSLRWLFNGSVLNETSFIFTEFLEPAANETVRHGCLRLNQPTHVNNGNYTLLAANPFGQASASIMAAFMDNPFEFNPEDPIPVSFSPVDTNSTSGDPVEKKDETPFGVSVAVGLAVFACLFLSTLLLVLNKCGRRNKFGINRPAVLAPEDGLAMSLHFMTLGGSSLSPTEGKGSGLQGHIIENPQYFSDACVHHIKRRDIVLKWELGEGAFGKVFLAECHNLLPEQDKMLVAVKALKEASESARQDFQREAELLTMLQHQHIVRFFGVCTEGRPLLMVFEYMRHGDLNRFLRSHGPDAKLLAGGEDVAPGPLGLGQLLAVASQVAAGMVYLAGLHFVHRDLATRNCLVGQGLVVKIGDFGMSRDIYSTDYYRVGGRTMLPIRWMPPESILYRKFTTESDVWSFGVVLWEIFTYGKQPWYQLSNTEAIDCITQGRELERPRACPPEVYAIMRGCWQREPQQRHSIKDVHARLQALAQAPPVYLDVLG

For the molecule `COCCN1C[C@H](NC(=O)Nc2c(C)c(OCCF)nn2-c2ccccc2)[C@@H](c2cncc(F)c2)C1` [Example 340, 1-(3-(2-fluoroethoxy)-4-methyl-1-phenyl-1H-pyrazol-5-yl)-3-((3R,4S)-4-(5-fluoropyridin-3-yl)-1-(2-methoxyethyl)pyrrolidin-3-yl)urea], the negative logarithm of the IC50 (pIC50) – broadly, −log10 of the IC50, conventionally taken in molar units – is 6.00 to 7.00. To `COCCN1C[C@@H](NC(=O)Nc2c(C)c([C@H]3CCCN3S(C)(=O)=O)nn2-c2ccccc2)[C@H](c2ccc(F)c(F)c2)C1` [Example 595, 1-((3S,4R)-4-(3,4-difluorophenyl)-1-(2-methoxyethyl)pyrrolidin-3-yl)-3-(4-methyl-3-((R)-1-(methylsulfonyl)pyrrolidin-2-yl)-1-phenyl-1H-pyrazol-5-yl)urea] belongs over 7.00; to `COC[C@@H](N1C[C@@H](NC(=O)Nc2c(Cl)c(-c3cnn(C)c3)nn2-c2ccccc2)[C@H](c2ccc(F)c(F)c2)C1)C(F)(F)F` [Example 278, 1-(4-chloro-1′-methyl-1-phenyl-1H, 1′H-3,4′-bipyrazol-5-yl)-3-((3S,4R)-4-(3,4-difluorophenyl)-1-((R)-1,1,1-trifluoro-3-methoxypropan-2-yl)pyrrolidin-3-yl)urea], over 7.00; to `COCCN1C[C@@H](NC(=O)Nc2c3c(nn2-c2ccccc2)COC3)[C@H](c2ccccc2)C1` [Example 81, 1-((3S,4R)-1-(2-methoxy-ethyl)-4-phenylpyrrolidin-3-yl)-3-(2-phenyl-4,6-dihydro-2H-furo[3,4-c]pyrazol-3-yl)urea], over 7.00. To `COCCN1C[C@@H](NC(=O)Nc2c(C)c([C@H]3CCCN3C(C)=O)nn2-c2ccccc2)[C@H](c2ccc(F)c(F)c2)C1` [Example 596, 1-(3-((R)-1-acetylpyrrolidin-2-yl)-4-methyl-1-phenyl-1H-pyrazol-5-yl)-3-((3S,4R)-4-(3,4-difluorophenyl)-1-(2-methoxyethyl)pyrrolidin-3-yl)urea] belongs over 7.00; to `CNC(=O)c1nn(-c2ccccc2)c(NC(=O)N[C@@H]2CN(CCOC)C[C@H]2c2ccc(Cl)c(F)c2)c1C` (relative stereo) [Example 302, 5-(3-(trans-4-(4-chloro-3-fluorophenyl)-1-(2-methoxyethyl)pyrrolidin-3-yl)ureido)-N,4-dimethyl-1-phenyl-1H-pyrazole-3-carboxamide], over 7.00; to `COCCN1C[C@@H](NC(=O)Nc2cc(-c3cnc(C)cn3)nn2C)[C@H](c2ccc(F)c(F)c2)C1` [Example 152, 1-((3S,4R)-4-(3,4-difluorophenyl)-1-(2-methoxyethyl)pyrrolidin-3-yl)-3-(1-methyl-3-(5-methylpyrazin-2-yl)-1H-pyrazol-5-yl)urea], over 7.00. In the case of `COCCN1C[C@@H](NC(=O)Nc2c3c(nn2-c2ccccc2)CCC3)[C@H](c2cccc(F)c2)C1` (relative stereo) [Example 39, trans-1-(4-(3-fluorophenyl)-1-(2-methoxyethyl)pyrrolidin-3-yl)-3-(2-phenyl-2,4,5,6-tetrahydrocyclopenta[c]pyrazol-3-yl)urea] it was over 7.00; in that of `COCCN1C[C@@H](NC(=O)Nc2c(C)c(OCCF)nn2-c2ccccc2)[C@H](c2ccc(F)c(F)c2)C1` [Example 144, 1-((3S,4R)-4-(3,4-difluorophenyl)-1-(2-methoxyethyl)pyrrolidin-3-yl)-3-(3-(2-fluoro-ethoxy)-4-methyl-1-phenyl-1H-pyrazol-5-yl)urea], over 7.00. As for `COCCN1C[C@@H](NC(=O)Nc2c(F)c(-c3ccccc3)nn2-c2ccccc2)[C@H](c2ccc(F)c(F)c2)C1` [Example 169, 1-((3S,4R)-4-(3,4-difluorophenyl)-1-(2-methoxyethyl)pyrrolidin-3-yl)-3-(4-fluoro-1,3-diphenyl-1H-pyrazol-5-yl)urea], the negative logarithm of the IC50 (pIC50) is over 7.00. In the case of `COCCN1C[C@@H](NC(=O)Nc2c(C)c(-c3cnn(CC(F)(F)F)c3)nn2-c2ccccc2)[C@H](c2ccc(F)c(F)c2)C1` [Example 499, 1-((3S,4R)-4-(3,4-difluorophenyl)-1-(2-methoxyethyl)pyrrolidin-3-yl)-3-(4-methyl-1-phenyl-1′-(2,2,2-trifluoroethyl)-1H, 1′H-[3,4′-bipyrazol]-5-yl)urea] it was over 7.00; in that of `COCCN1C[C@@H](NC(=O)Nc2c(C)c(-c3cnn(C(OCC(F)(F)F)C(F)(F)F)c3)nn2-c2ccccc2)[C@H](c2ccc(F)c(F)c2)C1` (stereo partly drawn) [Example 498, 1-((3S,4R)-4-(3,4-difluorophenyvl)-1-(2-methoxyethyl)pyrrolidin-3-yl)-3-(4-methyl-1-phenyl-1′-(2,2,2-trifluoro-1-(2,2,2-trifluoroethoxy)ethyl)-1H,1′H-[3,4′-bipyrazol]-5-yl)urea], over 7.00; in that of `CCOc1nn(-c2ccccc2)c(NC(=O)N[C@@H]2CN([C@@H](CO)C(F)(F)F)C[C@H]2c2ccc(F)c(F)c2)c1C` [Example 275, 1-((3S,4R)-4-(3,4-difluorophenyl)-1-((S)-1,1,1-trifluoro-3-hydroxypropan-2-yl)pyrrolidin-3-yl)-3-(3-ethoxv-4-methyl-1-phenyl-1H-pyrazol-5-yl)urea], 6.00 to 7.00. To `COCCN1C[C@@H](NC(=O)Nc2c(Br)c(OC[C@@H](C)O)nn2-c2ccccc2)[C@H](c2ccc(F)cc2)C1` [Example 377, 1-(4-bromo-3-((R)-2-hydroxypropoxy)-1-phenyl-1H-pyrazol-5-yl)-3-((3S,4R)-4-(4-fluorophenyl)-1-(2-methoxyethyl)pyrrolidin-3-yl)urea] belongs over 7.00; to `COCCN1C[C@@H](NC(=O)Nc2c(C)c(-c3ccnn3C)nn2-c2ccccc2)[C@H](c2ccc(F)c(F)c2)C1` [Example 494, 1-((3S,4R)-4-(3,4-difluorophenyl)-1-(2-methoxyethyl)pyrrolidin-3-yl)-3-(2′,4-dimethyl-1-phenyl-1H,2′H-[3,3′-bipyrazol]-5-yl)urea], over 7.00; to `COCCN1C[C@@H](NC(=O)Nc2c(C)c(-c3cnn(C)c3)nn2-c2ccccc2)[C@H](c2cc(F)cc(F)c2)C1` [Example 442, 1-(1′,4-dimethyl-1-phenyl-1H, 1′H-[3,4′-bipyrazol]-5-yl)-3-((3S,4R)-4-(3,5-difluorophenyl)-1-(2-methoxyethyl)pyrrolidin-3-yl)urea], over 7.00. In the case of `COCCN1C[C@@H](NC(=O)Nc2c(-c3ccccc3)nn(C)c2C)[C@H](c2cc(F)cc(F)c2)C1` [Example 640, 1-((3S,4R)-4-(3,5-difluorophenyl)-1-(2-methoxyethyl)pyrrolidin-3-yl)-3-(1,5-dimethyl-3-phenyl-1H-pyrazol-4-yl)urea] it was over 7.00; in that of `COCCN1C[C@@H](NC(=O)Nc2c(C)c(-c3cnc(N)nc3)nn2-c2ccccc2)[C@H](c2ccc(F)c(F)c2)C1` [Example 512, 1-(3-(2-aminopyrimidin-5-yl)-4-methyl-1-phenyl-1H-pyrazol-5-yl)-3-((3S,4R)-4-(3,4-difluorophenyl)-1-(2-methoxyethyl)pyrrolidin-3-yl)urea], over 7.00. `COCCN1C[C@@H](NC(=O)Nc2c(C)c(OC[C@H](C)O)nn2-c2ccccc2)[C@H](c2cc(F)c(F)c(F)c2)C1` [Example 561, 1-(3-((S)-2-hydroxypropoxy)-4-methyl-1-phenyl-1H-pyrazol-5-yl)-3-((3S,4R)-1-(2-methoxyethyl)-4-(3,4,5-trifluorophenyl)pyrrolidin-3-yl)urea] had a pIC50 of over 7.00.

`COCCN1C[C@@H](NC(=O)Nc2cc(-c3ccccc3)nn2CCO)[C@H](c2ccc(F)c(F)c2)C1` [Example 122, 1-((3S,4R)-4-(3,4-difluorophenyl)-1-(2-methoxyethyl)pyrrolidin-3-yl)-3-(1-(2-hydroxy-ethyl)-3-phenyl-1H-pyrazol-5-yl)urea] gave a pIC50 of 6.00 to 7.00.

With `COCCN1C[C@@H](NC(=O)Nc2c(C)c(OCC(F)F)nn2-c2ccccc2)[C@H](c2ccc(F)c(F)c2)C1` [Example 478, 1-(3-(2,2-difluoroethoxy)-4-methyl-1-phenyl-1H-pyrazol-5-yl)-3-((3 S,4R)-4-(3,4-difluorophenyl)-1-(2-methoxyethyl)pyrrolidin-3-yl)urea], the negative logarithm of the IC50 (pIC50) was over 7.00. For the molecule `COCCN1C[C@@H](NC(=O)Nc2cc(C3CC3)nn2C)[C@H](c2cc(F)cc(F)c2)C1` [Example 55, 1-(3-cyclopropyl-1-methyl-1H-pyrazol-5-yl)-3-((3S,4R)-4-(3,5-difluorophenyl)-1-(2-methoxyethyl)pyrrolidin-3-yl)urea], the pIC50 is 6.00 to 7.00. To `COCCN1C[C@@H](NC(=O)Nc2cc(C)nn2-c2ccccc2)[C@H](c2ccccc2)C1` (relative stereo) [Example 11, 1-(trans-1-(2-methoxyethyl)-4-phenylpyrrolidin-3-yl)-3-(3-methyl-1-phenyl-1H-pyrazol-5-yl)urea] belongs over 7.00; to `COCCN1C[C@@H](NC(=O)Nc2c(C)c([C@@H]3CCCN3)nn2-c2ccccc2)[C@H](c2ccc(F)c(F)c2)C1` [Example 584, 1-((3S,4R)-4-(3,4-difluorophenyl)-1-(2-methoxyethyl)pyrrolidin-3-yl)-3-(4-methyl-1-phenyl-3-((S)-pyrrolidin-2-yl)-1H-pyrazol-5-yl)urea dihydrochloride], over 7.00; to `CC[C@@H](O)COc1nn(-c2ccccc2)c(NC(=O)N[C@@H]2CN(CCOC)C[C@H]2c2ccc(F)c(F)c2)c1C` [Example 380, 1-((3S,4R)-4-(3,4-difluorophenyl)-1-(2-methoxyethyl)pyrrolidin-3-yl)-3-(3-((R)-2-hydroxybutoxy)-4-methyl-1-phenyl-1H-pyrazol-5-yl)urea], over 7.00. Take `COCCN1CC(c2ccccc2)[C@H](NC(=O)Nc2cnn3ccccc23)C1` (stereo partly drawn) [Example 636]: the pIC50 is 6.00 to 7.00. In the case of `CCn1nc(-c2ccccc2)cc1NC(=O)N[C@@H]1CN(CCOC)C[C@H]1c1ccccc1` (relative stereo) [Example 25, 1-(1-ethyl-3-phenyl-1H-pyrazol-5-yl)-3-(trans-1-(2-methoxyethyl)-4-phenylpyrrolidin-3-yl)urea] it was 6.00 to 7.00.
